Assay: Acute toxicity of intraperitoneal bolus doses in CD-1 mice
Type: in vivo
Conditions: female, CD-1, mouse, in vivo, ip; single i.p. bolus; not reached at highest dose
Protocol: 1.2.8 Animals Female CD-1 mice (Body weight: ˜25 g; Age: 7 week old) were purchased, from Charles River Laboratories (Willmington, Mass., USA). MMTV Neu-mice [FVB/N-TgN(MMTV neu)202MUL; Jackson Laboratory, Bar Harbor, Me.] were bred to produce multiple litters. All mice were housed in microisolator cages (Lab Products, Inc., Maywood, N.Y., USA) containing autoclaved bedding in a controlled specific pathogen-free (SPF) environment (12-h light/12-h dark photoperiod, 22±1° C., 60±10% relative humidity), which is fully accredited by the USDA (United States Department of Agriculture). Adult male Lewis rats (Body weight: ˜160 g) were obtained from the specific pathogen-free (SPF) breeding facilities of Harlan Sprague Dawley (Indianapolis, Id., USA) at 14 weeks of age. All husbandry and experimental contact made with the mice and rats maintained SPF conditions. The rats were kept in microisolater cages (Allentown Caging Equipment Co., Inc., Allentown, N.J., USA) containing autoclaved food, water, and bedding. Animal studies were approved by Parker Hughes Institute Animal Care and Use Committee and all animal care procedures 1.5 conformed to the Guide for the Care and Use of Laboratory Animals (National Research Council, National Academy Press, Washington D.C. 1996, USA).
The toxicity profile of Compound 003 in CD-1 mice and Lewis rats was examined, using standard procedures as previously reported for other experimental drugs (Uckun, et al., 2003, Arzneimittelforschun. 53:357; Uckun, et al., 2002, Clin Cancer Res. 8: 1224; Uckun, et al., 2002, Antimicrob Agents Chemother. 46:3428). In brief, mice and rats were treated with intraperitoneal injections of vehicle or Compound 003 at multiple dose levels. Compound 003 was administered as a 0.2 mL (for mice) or 0.5 mL (for rats) bolus injection containing 10% DMSO as a vehicle. Animals were allowed free access to autoclaved standard pellet food and tap water throughout the experiments and monitored daily for morbidity and mortality. Animals were electively sacrificed on day 7 or day 30 to determine the toxicity of Compound 003 by examining their blood chemistry profiles, blood counts, and evaluating multiple organs for the presence of toxic lesions. Blood was collected by intracardiac puncture following anesthesia with ketamine:xylazine and immediately heparinized. The blood chemistry profiles were examined using a Synchron CX5CE Chemical Analyzer (Beckman Instruments, Inc., Fullerton, Calif., USA). Blood counts (red blood cells [RBC], white blood cells [WBC] and platelets [Plt]) were determined using a HESKA Vet ABC-Diff Hematology Analyzer (HESKA Corporation, Fort Collins, Colo., USA). Absolute neutrophil counts (ANC) and absolute lymphocyte counts (ALC) were calculated from WBC values after determining the percentages of neutrophils and lymphocytes by a manual differential count. At the time of necropsy, […] from mice (bone, bone marrow, brain, cecum, heart, kidney, large intestine, liver, lung, lymph node, ovary, pancreas, skeletal muscle, skin, small intestine, spleen, stomach, thymus, thyroid gland, urinary bladder, and uterus, as available) and 21 different tissues from rats (bone, bone marrow, brain, coagulating gland, epididymis, heart, large intestine, small intestine, kidney, liver, lung, pancreas, peripheral nerve/spinal nerve, skeletal muscle, skin, spinal cord, spleen, stomach, testes, thymus, urinary bladder) were collected within 15 minutes after sacrifice, gross pathological findings were documented, organs were preserved in 10% neutral phosphate buffered formalin, and processed for histopathological examination. For histopathologic studies, formalin fixed tissues were dehydrated and embedded in paraffin by routine methods. Glass slides with affixed 4-5 micron tissue sections were prepared and stained with Hemotoxylin and Eosin (H&E). […]

COC(=O)C(C)NP(=O)(OCC1OC(n2cc(C)c(=O)[nH]c2=O)CC1N=[N+]=[N-])Oc1ccc(OC)cc1 (stereo not shown) [Compound 003, 3′-azidothymidine 5′-[p-methoxyphenylmethoxyalaninyl phosphate]] gave an LD50 greater than 80 mg/kg.
